Laboratory results as given in patent publication US20220026421A1, “METHOD, SURFACE, PARTICLE AND KIT FOR THE DETECTION OF ANALYTES IN SAMPLES” (TECHNISCHE UNIVERSITÄT DRESDEN, priority 2018, published 2022).

Biological target: EcEPSPS (UniProt P0A6D3+Q04571)
Details: FIG. 2; surfaces incubated with 10 mM solution, then glyphosate-coated particles; Ccg2 / Ccg2_GS_EcEPSPS coated glass
Description: The immobilised enzymes on the surface interact attractively with the particle-bound competitor, resulting in a characteristic contact area between the surface and the particle. The dissolved analyte competes with the competitor for the binding sites on the surface. […] The determination of the contact and particle radius to ascertain the adhesion energy takes place by means of reflection interference contrast microscopy.
The surfaces were then incubated with either 10 mM glyphosate or glufosinate solutions and then with linker-functionalised particles with or without glyphosate coating.
The surfaces were then incubated with glyphosate solutions of different concentrations and then with glyphosate-coated particles with ethylenediamine or pentaglycine linkers. […]
The recording of the radial intensity profiles of the HGS on the functionalised surface took place in the reflection interference contrast method by means of an inverted microscope system (Olympus IX 73) with a 60× immersion objective (Olympus UPIanSAPO 60× Oil Microscope Objective). From the recorded profiles, the contact radii a of particles and surface as well as the particle radii RHES could be automatically ascertained subsequently by means of software specially developed for this purpose. According to the Johnson-Kendall-Roberts model [2], these quantities are related to the adhesion energy Wadh in the following context: […]

## O=C(O)CNCP(=O)(O)O [glyphosate, N-(phosphonomethyl)glycine]
  influence of soluble compound on the adhesion energy between glyphosate-coated particle and surface: in the range of the negative control
